Results taken from PubChem BioAssay (NCI).
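A five-concentration, 48-hour dose response in 96-well plates underlies each endpoint, interpolated linearly between surrounding concentrations. Definition used: TGI = concentration required for complete inhibition of growth.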

How the values were obtained:
Experiment in all cases: NCI-60 cell line screen, 48 h
CCRF-CEM leukemia = system: CCRF-CEM leukemia
HOP-92 NSCLC = system: HOP-92 NSCLC
786-0 renal = system: 786-0 renal
DU-145 prostate = system: DU-145 prostate
HCT-15 colon = system: HCT-15 colon
NCI/ADR-RES ovarian = system: NCI/ADR-RES ovarian
UACC-257 melanoma = system: UACC-257 melanoma
A498 renal = system: A498 renal
HS 578T breast = system: HS 578T breast
HOP-62 NSCLC = system: HOP-62 NSCLC
EKVX NSCLC = system: EKVX NSCLC
HCT-116 colon = system: HCT-116 colon
SNB-75 CNS = system: SNB-75 CNS
SF-268 CNS = system: SF-268 CNS

Structure (SMILES) | TGI (CCRF-CEM leukemia) [µM] | TGI (HOP-92 NSCLC) [µM] | TGI (786-0 renal) [µM] | TGI (DU-145 prostate) [µM] | TGI (HCT-15 colon) [µM] | TGI (NCI/ADR-RES ovarian) [µM] | TGI (UACC-257 melanoma) [µM] | TGI (A498 renal) [µM] | TGI (HS 578T breast) [µM] | TGI (HOP-62 NSCLC) [µM] | TGI (EKVX NSCLC) [µM] | TGI (HCT-116 colon) [µM] | TGI (SNB-75 CNS) [µM] | TGI (SF-268 CNS) [µM]
Fc1cc(-c2cc(-c3ccccc3)no2)c(Cl)cc1Cl | > 49.6 | 35.7 | > 33.6 | > 48.6 | > 68.4 | > 100 | > 71.6 | > 54 | > 88.9 | > 54.8 | > 51.9 | > 31.7 | > 54.4 | > 54.2
CC(C)=CC[C@]12CCN[C@H]1N(S(=O)(=O)c1ccccc1)c1ccccc12 | > 100 | 28.3 | 32.2 | > 100 | 32.8 | 30.5 | 34.8 |  | 44.5 | 29.1 | 21.3 | 27.9 | 44.5 | 33.3
COC(=O)c1ccccc1/C=C1\Cc2ccc(C)c(C)c2C1=O | > 100 | 92.5 | > 100 | > 100 | > 100 | > 100 | > 100 | > 100 | > 100 | > 100 | > 100 | > 100 | > 100 | > 100
O=C(Oc1ccccn1)c1cc2cc(CCl)ccc2oc1=O | > 100 | 39.3 | 39.6 | > 100 | > 100 | 75.5 | > 100 | > 100 | 59.6 | 52.9 | > 100 | 69.4 | 62.1 | 39.2
COc1cc(C2c3cc4c(cc3OC3(OC)COC(=O)C23)OCO4)cc(OC)c1OC(C)=O (stereo not given) | > 100 | > 100 | > 100 | > 100 | > 100 | 10.4 | > 100 | 97.4 | > 100 | 31.7 | > 100 | 38.7 | > 62.9 | > 100
CC(CO)(CO)N1C(=O)C2C3C=CC(C3)C2C1=O (stereo not given) | > 100 | > 100 | > 100 | > 100 | > 100 | > 100 | > 100 | > 100 | > 100 | > 100 | > 100 | > 100 | > 100 | > 100
Cc1ccnc2[nH]c3ccccc3c(=O)c12 | > 100 | > 100 | > 100 | > 100 | > 100 | > 100 | > 100 | > 100 | 48 | > 100 | 71.7 | > 100 | 32.1 | 45.5
CC1OC(OC2C(O)COC(OC3C(C)OC(OC4C(OC(=O)[C@]56CCC(C)(C)C[C@@H]5C5=CCC7[C@@]8(C)C[C@H](O)[C@H](OC9OC(CO)C(O)C(O)C9O)[C@@](C)(CO)[C@@H]8CC[C@@]7(C)[C@]5(C)CC6)OCC(O)C4O)C(O)C3OC3OCC(O)(CO)C3O)C2O)C(O)C(O)C1O (stereo not given in full) | 44.7 | 50.3 | 27.8 | 30.3 | 38.7 | 41.7 | 28.5 | 13.6 | 35.8 | 34.5 | 15.8 | 30.6 | 39.6 | 28.4
Cc1cc2oc(=N)c(C#N)c(C)c2cc1C | > 100 | > 100 | > 100 | > 100 | > 100 | > 100 | > 100 | > 100 | > 100 | > 100 | > 100 | > 100 | 79.8 | > 100
OC1C#CCSCC#C/C=C\1 (stereo not given) | 98.4 | > 100 | 39.5 | > 100 | > 100 | 7.72 | > 100 | > 100 | > 100 | > 100 | > 100 | > 100 | > 100 | > 100
Cn1cc(NC(=O)Nc2cc(C(=O)Nc3cc(C(=O)Nc4ccc(S(=O)(=O)O)c5cc(S(=O)(=O)O)ccc45)n(C)c3)n(C)c2)cc1C(=O)Nc1cc(C(=O)Nc2ccc(S(=O)(=O)O)c3cc(S(=O)(=O)O)ccc23)n(C)c1 | > 100 | > 100 | > 100 | > 100 | > 100 | > 100 | > 100 |  | > 100 | > 100 | > 100 | > 100 | > 100 | > 100
Oc1[nH]c2ccccc2c1N=NC(=S)Nc1cccc(Cl)c1 | 31 | 70.3 | 27.6 | > 100 | > 100 | 8 | 75.5 | 24.7 | > 100 | 42.5 | > 100 | 17.3 |  | > 100
